The results in this text go back to ChEMBL document CHEMBL5696442, “Discovery of type II inhibitors of TGFβ-activated kinase 1 (TAK1) and mitogen-activated protein kinase kinase kinase kinase 2 (MAP4K2)” (J Med Chem, 2015).

For assay [1], the system named is Serine/threonine-protein kinase B-raf (Homo sapiens), P15056 [V600E]. The experiment in a line: Inhibition of BRAF V600E mutant (unknown origin) at 1 uM by Ambit Kinomescan binding assay relative to control.
The target in assay [2] is T1, Dual specificity mitogen-activated protein kinase kinase 3 (Homo sapiens) (UniProt P46734).
T1 sequence (whole entry): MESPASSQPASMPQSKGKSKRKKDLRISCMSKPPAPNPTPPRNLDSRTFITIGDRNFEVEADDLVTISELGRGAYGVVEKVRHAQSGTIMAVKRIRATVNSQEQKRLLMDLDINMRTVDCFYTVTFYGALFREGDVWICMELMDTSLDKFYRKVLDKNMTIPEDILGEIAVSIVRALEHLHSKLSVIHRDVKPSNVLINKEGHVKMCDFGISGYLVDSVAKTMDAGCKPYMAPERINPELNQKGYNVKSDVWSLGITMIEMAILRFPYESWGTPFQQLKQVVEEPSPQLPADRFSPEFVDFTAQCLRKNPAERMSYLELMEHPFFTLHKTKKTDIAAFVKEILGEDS
The experiment in a line: Inhibition of MAP2K3 Lys2 labeling site in human A-375 cells at 0.5 uM by KiNativ Profiling analysis relative to control. It is filed as cell-based.

Assay [3] deals with Vascular endothelial growth factor receptor 2 (Homo sapiens) (UniProt P35968). Put plainly: Inhibition of VEGFR2 (unknown origin) at 1 uM by Ambit Kinomescan binding assay relative to control.
Assay [4] concerns the target Serine/threonine-protein kinase B-raf (Homo sapiens, UniProt P15056). Put plainly: Inhibition of BRAF Lys2 labeling site in human A-375 cells at 0.5 uM by KiNativ Profiling analysis relative to control. Format: cell-based.
Assay [5] has as its target Serine/threonine-protein kinase 17A (Homo sapiens) (UniProt Q9UEE5). Put plainly: Inhibition of DRAK1 (unknown origin) at 1 uM by Ambit Kinomescan binding assay relative to control; values are per cent of control.
Assay [6] has as its target T2, Aurora kinase A (Homo sapiens) (UniProt O14965).
T2 sequence (whole entry): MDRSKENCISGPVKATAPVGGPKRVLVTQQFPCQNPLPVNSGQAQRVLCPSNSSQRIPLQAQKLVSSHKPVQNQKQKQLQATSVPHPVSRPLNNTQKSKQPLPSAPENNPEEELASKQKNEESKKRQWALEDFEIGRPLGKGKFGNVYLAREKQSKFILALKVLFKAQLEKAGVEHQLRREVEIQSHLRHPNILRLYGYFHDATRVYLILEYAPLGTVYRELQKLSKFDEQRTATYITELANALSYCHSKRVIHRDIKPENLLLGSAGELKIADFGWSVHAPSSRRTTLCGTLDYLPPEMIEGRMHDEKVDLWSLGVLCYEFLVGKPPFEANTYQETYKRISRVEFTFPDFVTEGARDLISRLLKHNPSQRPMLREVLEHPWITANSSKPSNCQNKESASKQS
The experiment in a line: Inhibition of AurA Lys2 labeling site in human A-375 cells at 0.05 uM by KiNativ Profiling analysis relative to control. It is filed as cell-based.

The target of assay [7] is Serine/threonine-protein kinase Nek3 (Homo sapiens) (UniProt P51956). The experiment in a line: Inhibition of NEK3 (unknown origin) at 1 uM by Ambit Kinomescan binding assay relative to control; values are per cent of control.
The nature of assay [8]: Inhibition of […] ATP labeling site in human Huh-7 cells at 10 uM by KiNativ Profiling analysis relative to control. The conditions noted are these: condition cancer.
Assay [9] has as its target Proto-oncogene tyrosine-protein kinase ROS (Homo sapiens) (UniProt P08922). The experiment in a line: Inhibition of ROS1 (unknown origin) at 10 uM by Ambit Kinomescan binding assay.
Assay [10] addresses T3, Serine/threonine-protein kinase ULK1 (Homo sapiens) (UniProt O75385).
T3 sequence (whole entry): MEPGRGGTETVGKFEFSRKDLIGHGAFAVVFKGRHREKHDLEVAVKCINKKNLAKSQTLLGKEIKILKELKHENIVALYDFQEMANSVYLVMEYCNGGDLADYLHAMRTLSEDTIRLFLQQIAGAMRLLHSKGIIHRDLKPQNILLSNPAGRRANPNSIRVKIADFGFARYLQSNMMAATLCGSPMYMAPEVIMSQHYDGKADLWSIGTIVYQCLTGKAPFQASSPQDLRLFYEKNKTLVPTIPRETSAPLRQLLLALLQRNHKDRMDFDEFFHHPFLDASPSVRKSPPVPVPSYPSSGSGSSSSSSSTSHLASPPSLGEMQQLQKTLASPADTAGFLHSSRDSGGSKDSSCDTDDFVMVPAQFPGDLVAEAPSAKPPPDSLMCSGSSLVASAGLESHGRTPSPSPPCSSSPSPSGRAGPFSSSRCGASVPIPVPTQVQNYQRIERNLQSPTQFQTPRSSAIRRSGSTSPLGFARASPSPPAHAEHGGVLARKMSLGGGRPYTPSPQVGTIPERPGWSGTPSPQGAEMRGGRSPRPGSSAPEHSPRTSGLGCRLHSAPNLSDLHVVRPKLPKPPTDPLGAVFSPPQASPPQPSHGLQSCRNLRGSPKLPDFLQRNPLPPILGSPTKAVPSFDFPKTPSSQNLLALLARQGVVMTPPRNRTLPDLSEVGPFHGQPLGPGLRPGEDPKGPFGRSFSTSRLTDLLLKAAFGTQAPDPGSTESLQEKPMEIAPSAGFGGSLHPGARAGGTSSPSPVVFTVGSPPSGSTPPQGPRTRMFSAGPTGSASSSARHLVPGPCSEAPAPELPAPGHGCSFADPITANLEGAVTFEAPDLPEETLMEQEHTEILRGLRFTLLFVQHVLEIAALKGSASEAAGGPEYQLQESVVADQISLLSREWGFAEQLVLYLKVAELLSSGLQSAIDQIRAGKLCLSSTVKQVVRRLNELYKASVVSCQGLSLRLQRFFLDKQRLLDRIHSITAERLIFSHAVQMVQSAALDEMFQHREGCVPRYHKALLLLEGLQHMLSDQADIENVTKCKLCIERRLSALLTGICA
The experiment in a line: Inhibition of ULK1 Lys2 labeling site in human A-375 cells at 0.5 uM by KiNativ Profiling analysis relative to control. It is filed as cell-based.

For assay [11], the target named is RPS6KA1/RPS6KA2/RPS6KA3 (Homo sapiens) (UniProt P51812+Q15349+Q15418). The experiment in a line: Inhibition of RSK1/2/3 Domain 1 K2 labeling site harbouring DLKPENILLDEEGHIKLTDFGLSK in human Huh-7 cells at 10 uM by KiNativ Profiling analysis relative to control. Format: cell-based.
In assay [12] the target is Serine/threonine-protein kinase 38 (Homo sapiens) (UniProt Q15208). The experiment in a line: Inhibition of NDR1 Lys1 labeling site in human Huh-7 cell lysate at 1 uM by KiNativ Profiling analysis relative to control. Format: subcellular.
Assay [13] concerns the target Serine/threonine-protein kinase 4 (Homo sapiens) (UniProt Q13043). Put plainly: Inhibition of MST1 Lys2 labeling site harbouring DIKAGNILLNTEGHAK in human Huh-7 cell lysate at 1 uM by KiNativ Profiling analysis relative to control.

Calls of active or inactive are those of the source. The rule behind the calls is not given here.

Chain of Serine/threonine-protein kinase 4 (Homo sapiens) (Q13043 whole entry, looked up): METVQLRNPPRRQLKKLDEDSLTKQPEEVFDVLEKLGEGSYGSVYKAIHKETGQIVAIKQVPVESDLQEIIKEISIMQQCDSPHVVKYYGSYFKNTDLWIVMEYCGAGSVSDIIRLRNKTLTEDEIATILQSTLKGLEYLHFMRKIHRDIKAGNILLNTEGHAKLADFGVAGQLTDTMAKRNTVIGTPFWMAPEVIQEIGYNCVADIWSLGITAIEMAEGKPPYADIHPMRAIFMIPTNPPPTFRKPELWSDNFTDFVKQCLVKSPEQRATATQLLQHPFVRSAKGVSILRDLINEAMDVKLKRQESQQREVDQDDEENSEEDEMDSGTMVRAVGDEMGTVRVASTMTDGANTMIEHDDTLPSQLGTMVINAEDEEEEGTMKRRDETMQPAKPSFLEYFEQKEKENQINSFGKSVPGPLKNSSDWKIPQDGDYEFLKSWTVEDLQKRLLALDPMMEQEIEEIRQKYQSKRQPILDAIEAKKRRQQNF
Chain of Serine/threonine-protein kinase Nek3 (Homo sapiens) (P51956 whole entry): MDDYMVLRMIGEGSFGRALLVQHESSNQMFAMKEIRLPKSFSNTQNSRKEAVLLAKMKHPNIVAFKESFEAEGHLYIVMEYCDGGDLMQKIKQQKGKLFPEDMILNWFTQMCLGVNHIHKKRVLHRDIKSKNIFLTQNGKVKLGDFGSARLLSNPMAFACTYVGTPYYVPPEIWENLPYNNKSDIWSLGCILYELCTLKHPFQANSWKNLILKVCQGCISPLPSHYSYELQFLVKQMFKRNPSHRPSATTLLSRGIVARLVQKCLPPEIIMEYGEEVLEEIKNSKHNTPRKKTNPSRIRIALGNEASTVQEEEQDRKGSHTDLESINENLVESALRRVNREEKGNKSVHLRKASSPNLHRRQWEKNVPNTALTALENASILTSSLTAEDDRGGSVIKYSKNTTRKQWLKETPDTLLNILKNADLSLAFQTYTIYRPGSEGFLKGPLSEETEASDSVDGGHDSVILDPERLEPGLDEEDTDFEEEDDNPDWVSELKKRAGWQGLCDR
Chain of Serine/threonine-protein kinase 38 (Homo sapiens) (Q15208 2-465 limits assumed): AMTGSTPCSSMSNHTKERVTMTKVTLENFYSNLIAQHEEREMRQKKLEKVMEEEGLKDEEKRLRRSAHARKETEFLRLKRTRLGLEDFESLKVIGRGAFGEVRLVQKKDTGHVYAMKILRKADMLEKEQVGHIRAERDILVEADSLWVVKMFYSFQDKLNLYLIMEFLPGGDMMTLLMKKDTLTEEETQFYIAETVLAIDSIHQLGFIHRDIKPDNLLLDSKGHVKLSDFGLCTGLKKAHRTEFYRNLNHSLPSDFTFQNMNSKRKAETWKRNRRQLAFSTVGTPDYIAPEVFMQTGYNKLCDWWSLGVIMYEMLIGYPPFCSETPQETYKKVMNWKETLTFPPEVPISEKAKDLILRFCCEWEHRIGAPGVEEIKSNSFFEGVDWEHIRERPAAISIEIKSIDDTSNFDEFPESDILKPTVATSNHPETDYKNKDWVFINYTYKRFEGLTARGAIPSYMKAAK
Chain of Serine/threonine-protein kinase 17A (Homo sapiens) (Q9UEE5 whole entry): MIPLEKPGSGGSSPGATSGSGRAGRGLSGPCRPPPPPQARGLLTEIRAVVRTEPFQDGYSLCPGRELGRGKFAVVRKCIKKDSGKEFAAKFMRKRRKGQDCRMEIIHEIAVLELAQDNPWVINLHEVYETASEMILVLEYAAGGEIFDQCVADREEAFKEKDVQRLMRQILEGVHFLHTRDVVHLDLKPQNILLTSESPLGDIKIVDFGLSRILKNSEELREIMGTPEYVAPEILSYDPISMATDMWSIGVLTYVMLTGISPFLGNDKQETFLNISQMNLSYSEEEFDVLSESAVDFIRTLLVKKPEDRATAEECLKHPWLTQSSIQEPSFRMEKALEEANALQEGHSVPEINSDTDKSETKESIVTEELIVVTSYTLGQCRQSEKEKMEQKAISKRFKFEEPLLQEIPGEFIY
Chain of Serine/threonine-protein kinase B-raf (P15056 whole entry): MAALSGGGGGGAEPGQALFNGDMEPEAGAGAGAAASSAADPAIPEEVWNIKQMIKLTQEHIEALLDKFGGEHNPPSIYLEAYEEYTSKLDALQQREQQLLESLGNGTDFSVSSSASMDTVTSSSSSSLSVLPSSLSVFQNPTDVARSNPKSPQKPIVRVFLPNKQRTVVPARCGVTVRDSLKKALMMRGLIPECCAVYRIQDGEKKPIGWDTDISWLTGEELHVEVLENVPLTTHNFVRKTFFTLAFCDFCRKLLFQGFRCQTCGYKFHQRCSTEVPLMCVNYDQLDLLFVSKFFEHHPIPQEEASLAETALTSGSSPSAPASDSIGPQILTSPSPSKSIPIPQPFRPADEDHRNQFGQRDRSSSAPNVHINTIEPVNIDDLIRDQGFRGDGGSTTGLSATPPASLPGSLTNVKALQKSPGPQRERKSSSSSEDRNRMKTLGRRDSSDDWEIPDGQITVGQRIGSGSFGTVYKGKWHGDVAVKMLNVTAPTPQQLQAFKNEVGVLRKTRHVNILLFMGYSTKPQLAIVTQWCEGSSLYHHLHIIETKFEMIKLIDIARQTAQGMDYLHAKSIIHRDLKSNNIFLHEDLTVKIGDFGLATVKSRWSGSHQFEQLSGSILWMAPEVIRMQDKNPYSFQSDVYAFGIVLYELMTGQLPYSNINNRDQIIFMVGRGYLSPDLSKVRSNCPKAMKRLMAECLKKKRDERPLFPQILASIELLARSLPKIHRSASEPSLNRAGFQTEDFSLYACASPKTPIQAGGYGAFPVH
Chain of Proto-oncogene tyrosine-protein kinase ROS (Homo sapiens) (P08922 whole entry): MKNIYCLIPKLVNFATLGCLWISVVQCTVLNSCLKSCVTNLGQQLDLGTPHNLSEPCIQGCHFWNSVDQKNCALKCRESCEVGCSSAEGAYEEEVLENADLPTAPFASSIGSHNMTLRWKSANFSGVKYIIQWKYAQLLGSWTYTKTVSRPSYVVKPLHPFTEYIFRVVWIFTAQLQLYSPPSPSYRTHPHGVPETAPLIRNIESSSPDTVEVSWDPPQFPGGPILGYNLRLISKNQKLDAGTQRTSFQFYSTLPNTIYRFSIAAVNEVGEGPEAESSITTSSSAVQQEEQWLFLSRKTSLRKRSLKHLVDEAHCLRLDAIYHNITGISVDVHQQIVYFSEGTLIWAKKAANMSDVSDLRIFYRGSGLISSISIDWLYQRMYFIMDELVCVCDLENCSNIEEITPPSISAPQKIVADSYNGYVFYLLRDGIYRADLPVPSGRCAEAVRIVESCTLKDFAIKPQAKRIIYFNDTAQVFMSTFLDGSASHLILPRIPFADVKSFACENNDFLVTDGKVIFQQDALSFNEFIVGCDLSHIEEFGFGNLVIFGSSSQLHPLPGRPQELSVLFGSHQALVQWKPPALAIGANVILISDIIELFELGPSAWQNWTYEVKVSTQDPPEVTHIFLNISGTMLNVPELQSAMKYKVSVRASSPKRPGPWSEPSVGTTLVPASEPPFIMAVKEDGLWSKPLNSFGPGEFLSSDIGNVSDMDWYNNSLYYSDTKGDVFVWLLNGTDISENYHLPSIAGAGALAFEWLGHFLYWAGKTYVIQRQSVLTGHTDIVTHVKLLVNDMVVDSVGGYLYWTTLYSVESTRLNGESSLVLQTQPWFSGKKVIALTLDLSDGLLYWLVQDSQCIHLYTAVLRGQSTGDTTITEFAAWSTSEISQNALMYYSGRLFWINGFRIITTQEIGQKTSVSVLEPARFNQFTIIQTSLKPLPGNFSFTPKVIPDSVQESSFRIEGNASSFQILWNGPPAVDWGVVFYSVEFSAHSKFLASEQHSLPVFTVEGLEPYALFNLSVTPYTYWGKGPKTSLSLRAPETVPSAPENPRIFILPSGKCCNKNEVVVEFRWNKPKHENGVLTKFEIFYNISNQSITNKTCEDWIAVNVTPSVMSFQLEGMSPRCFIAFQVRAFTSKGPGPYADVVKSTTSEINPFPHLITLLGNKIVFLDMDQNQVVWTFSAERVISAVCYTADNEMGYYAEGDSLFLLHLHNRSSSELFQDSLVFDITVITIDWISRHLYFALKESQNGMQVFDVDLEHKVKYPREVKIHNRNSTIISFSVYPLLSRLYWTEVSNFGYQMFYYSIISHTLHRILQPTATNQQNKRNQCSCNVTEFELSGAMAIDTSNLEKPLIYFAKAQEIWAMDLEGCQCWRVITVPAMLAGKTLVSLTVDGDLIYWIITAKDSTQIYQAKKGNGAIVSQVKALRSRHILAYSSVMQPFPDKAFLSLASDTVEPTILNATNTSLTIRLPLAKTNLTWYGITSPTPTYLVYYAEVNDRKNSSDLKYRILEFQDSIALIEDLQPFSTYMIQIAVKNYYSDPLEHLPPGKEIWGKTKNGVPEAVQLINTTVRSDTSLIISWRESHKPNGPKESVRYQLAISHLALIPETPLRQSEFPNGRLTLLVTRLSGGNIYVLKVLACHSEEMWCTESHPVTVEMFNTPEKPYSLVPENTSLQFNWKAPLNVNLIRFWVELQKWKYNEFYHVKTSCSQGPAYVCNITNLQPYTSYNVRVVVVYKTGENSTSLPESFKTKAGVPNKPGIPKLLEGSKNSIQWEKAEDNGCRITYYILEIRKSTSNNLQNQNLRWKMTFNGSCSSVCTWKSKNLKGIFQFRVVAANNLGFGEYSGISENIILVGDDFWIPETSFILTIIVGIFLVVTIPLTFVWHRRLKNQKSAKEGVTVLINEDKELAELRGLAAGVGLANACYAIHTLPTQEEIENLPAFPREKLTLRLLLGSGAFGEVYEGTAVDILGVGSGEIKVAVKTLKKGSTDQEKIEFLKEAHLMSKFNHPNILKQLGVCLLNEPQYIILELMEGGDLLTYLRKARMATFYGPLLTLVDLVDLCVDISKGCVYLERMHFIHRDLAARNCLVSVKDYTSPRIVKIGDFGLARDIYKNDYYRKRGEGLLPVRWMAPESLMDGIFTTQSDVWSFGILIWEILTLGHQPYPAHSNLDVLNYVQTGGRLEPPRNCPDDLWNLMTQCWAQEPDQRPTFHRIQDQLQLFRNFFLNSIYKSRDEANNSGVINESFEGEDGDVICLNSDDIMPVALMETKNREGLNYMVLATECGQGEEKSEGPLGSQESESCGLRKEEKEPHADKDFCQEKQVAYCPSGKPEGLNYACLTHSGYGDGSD
Chain of Serine/threonine-protein kinase B-raf (Homo sapiens), P15056 [V600E] (P15056 whole entry V600E): as the sequence (P15056 whole entry) above, with V600E counted along it

Consider `CCN1CCN(Cc2ccc(NC(=O)c3ccc(C)c(/C=C/c4cnc5[nH]ccc5c4OC)c3)cc2C(F)(F)F)CC1`, for which the inhibition was 7.4% in assay [1]; 6.4% in assay [2]; 14% in assay [3]; 58.7% in assay [4]; -9.1% in assay [6]. In addition, the residual activity in assay [5] worked out at 52%; in assay [7], 79%.
Turning to `CCN1CCN(Cc2ccc(NC(=O)c3ccc(C)c(Oc4ccnc5[nH]ccc45)c3)cc2C(F)(F)F)CC1`, in [8], the inhibition at 10 µM was -5.1%. The inhibition entry in assay [9] is “inactive”. Also, the inhibition was -6.3% in assay [10] and -6.5% in [11].
For the compound `CNc1cc(Oc2cc(C(=O)Nc3cc(N4CCN(C)CC4)cc(C(F)(F)F)c3)ccc2C)ncn1`, the inhibition in assay [12] turned out to be 9.5%; in assay [13], 8.2%.
